The source of these data is patent US6403639B1, “2,3-dihydrobenzofuran derivatives” (Chugai Seiyaku Kabushiki Kaisha, priority 1997, dated 2002).

Molecules are shown by their SMILES. Where two headings read alike, the source gives them in different places.

Assay [1] concerns porcine kidney-derived LLC-PK1 cells. Put plainly: Protective effect against cell injury of porcine kidney-derived LLC-PK1 cells (2), oxidized LDL-induced LDH leakage. It counts as cell-based. The method, then:
The oxidized LDL was prepared by placing 1 mg/ml of rabbit LDL in PBS (−) in the presence of 10 μM CuSO4 at 37° C. for 24 hours. Cell cultures were prepared by inoculating 1.25×10^4 cells/250 μl/well on a 48-well plate using M199 medium containing 3% FBS. Test compounds were dissolved or suspended in ethanol and added at a ratio of 1.25 μl/well 16 hours before or immediately before addition of the oxidized LDL to a concentration of 0.1, 1 or 10 μM in each well. The oxidized LDL was diluted twice with physiological saline and then added to cells at 62.5 μl/well to a concentration of 100 μg/ml and the cells were incubated for 6 hours after addition of the oxidized LDL. After the incubation, 162.5 μl of the culture medium was collected from each of the wells and measured for the lactate dehydrogenase (LDH) activity (Lactate Dehydrogenase (LD-L): SIGNA DIAGNOSTICS) which has leaked into the culture medium.
(§1) The cytoprotective effect was expressed as a % cytoprotection where the effect in wells containing the oxidized LDL but without any test compound is 0% and the effect in wells containing physiological saline in place of the oxidized LDL is 100%.
For the purpose of evaluating in vitro cytoprotective effect of the compounds of the present invention, protective effect against cell injury of porcine kidney-derived LLC-PK1 cells (ATCC-CRL-13921) induced by oxidized low-density lipoprotein (oxidized LDL) was examined in the same manner as in Test example 1.
Preparation of oxidized LDL and conditions for cell culture and addition of test compounds were the same as those in Test example 1, except that the oxidized LDL was not diluted with physiological saline and added to cells at 25 μl/well to a concentration of 91 μg/ml and the cells were incubated for 6 hours after addition of oxidized LDL. After the incubation, 150 μl of the culture medium was collected from each of the wells and measured for the lactate dehydrogenase (LDH) activity (Lactate Dehydrogenase (LD-L): SIGMA DIAGNOSTICS) which has leaked in the culture medium.
In general terms: Release of lactate dehydrogenase indicates damage to the cell membrane.

The subject of the next assay is cultured mesangial cells. The experiment in a line: Protective effect against cell injury of cultured mesangial cells, oxidized LDL-induced LDH leakage. The assay is classed as cell-based, rats. The method, then: For the purpose of evaluating in vitro cytoprotective effect of the compounds of the present invention, protective effect against cell injury of cultured mesangial cells induced by oxidized low-density lipoprotein (LDL) was examined. The cells used were subcultures after 4 to 6 passages of the primary cultures of mesangial cells prepared from kidney of 4-week-old SD-strain male rats (Nippon Charles River Corp.).
The oxidized LDL was prepared by placing 1 mg/ml of rabbit LDL in PBS (−) in the presence of 10 μM CuSO4 at 37° C. for 24 hours. Cell cultures were prepared by inoculating 2.5×10^4 cells/250 μl/well on a 48-well plate using RPMI1640 medium containing 20% FBS. Immediately before addition of test compounds, the medium was replaced with RPMI1640 free from FBS. Test compounds were dissolved or suspended in ethanol and added at 1.25 μl/well 16 hours before or immediately before addition of the oxidized LDL to a concentration of 1, 3 or 10 μM in each well. Unlike Test example 1, the oxidized LDL was not diluted with physiological saline and added to cells at 25 μl/well to a concentration of 91 μg/ml and the cells were incubated for 8 hours after addition of the oxidized LDL. After the incubation, 150 μl of the culture medium was collected from each of the wells and measured for the lactate dehydrogenase activity (Lactate Dehydrogenase (LD-L): SIGMA DIAGNOSTICS) which has leaked in the culture medium.
as §1

Where [2] appears, read: Sus scrofa, LLC-PK1; 0.1 μM; test compounds added 16 hours before addition of oxidized LDL; oxidized LDL 91 μg/ml, 6 hours; read-out: % cytoprotection 1).
Setting [3] is: Sus scrofa, LLC-PK1; 0.1 μM; test compounds added immediately before addition of oxidized LDL; oxidized LDL 91 μg/ml, 6 hours; read-out: % cytoprotection 2).
Setting [4] is: Sus scrofa, LLC-PK1; 1 μM; test compounds added 16 hours before addition of oxidized LDL; oxidized LDL 91 μg/ml, 6 hours; read-out: % cytoprotection 1).
The mark [5] stands for this setting: Sus scrofa, LLC-PK1; 1 μM; test compounds added immediately before addition of oxidized LDL; oxidized LDL 91 μg/ml, 6 hours; read-out: % cytoprotection 2).
Where [6] appears, read: Sus scrofa, LLC-PK1; 10 μM; test compounds added 16 hours before addition of oxidized LDL; oxidized LDL 91 μg/ml, 6 hours; read-out: % cytoprotection 1).
[7] abbreviates: Sus scrofa, LLC-PK1; 10 μM; test compounds added immediately before addition of oxidized LDL; oxidized LDL 91 μg/ml, 6 hours; read-out: % cytoprotection 2).
Setting [8] is: Rattus norvegicus, Mesangial cell; 1 μM; test compounds added 16 hours before addition of oxidized LDL; oxidized LDL 91 μg/ml, 8 hours; read-out: % cytoprotection 1).
The mark [9] stands for this setting: Rattus norvegicus, Mesangial cell; 1 μM; test compounds added immediately before addition of oxidized LDL; oxidized LDL 91 μg/ml, 8 hours; read-out: % cytoprotection 2).
Setting [10] is: Rattus norvegicus, Mesangial cell; 3 μM; test compounds added 16 hours before addition of oxidized LDL; oxidized LDL 91 μg/ml, 8 hours; read-out: % cytoprotection 1).
The mark [11] stands for this setting: Rattus norvegicus, Mesangial cell; 3 μM; test compounds added immediately before addition of oxidized LDL; oxidized LDL 91 μg/ml, 8 hours; read-out: % cytoprotection 2).

Turning to `CC1Cc2cc(O)c(C(C)(C)C)cc2O1` (stereo not shown) [Example 16, 6-t-Butyl-5-hydroxy-2-methyl-2,3-dihydrobenzofuran], the results for the inhibition at 0.1 µM in assay [1] (setting [2]) and in assay [1] (setting [3]) were 12.7% and 7.6%, respectively. The inhibition at 1 µM was 99.7% in assay [1] (setting [4]), 90.8% in assay [1] (setting [5]), 50.6 ± 5.9% in the assay with cultured mesangial cells (setting [8]) and 18.7 ± 1.3% in the assay with cultured mesangial cells (setting [9]). The inhibition at 10 µM in assay [1] (setting [6]) and in assay [1] (setting [7]) was 103% each time. In addition, the inhibition at 3 µM in the assay with cultured mesangial cells (setting [10]) is 45.3 ± 9.4%; with cultured mesangial cells (setting [11]) it was 28.3 ± 6.2%.
In the case of `CCCc1c(O)c(C(C)(C)C)cc2c1CC1(CCCCCC1)O2` [Example 9, 6-t-Butyl-5-hydroxy-4-n-propyl-2,3-dihydrobenzofuran-2-spiro-1′-cycloheptane], the values for the inhibition at 0.1 µM in assay [1] (setting [2]) and in assay [1] (setting [3]) were 12.9% and 11.5%, respectively. Besides, the inhibition at 1 µM turned out to be 47.7% in assay [1] (setting [4]), 58.9% in assay [1] (setting [5]), 14.4 ± 5.1% with cultured mesangial cells (setting [8]) and 29.6 ± 2% in the assay on cultured mesangial cells (setting [9]). The inhibition at 10 µM in assay [1] (setting [6]) and in assay [1] (setting [7]) was 104% throughout. The inhibition at 3 µM in the assay on cultured mesangial cells (setting [10]) was found to be 56.2 ± 9.3%; in the assay with cultured mesangial cells (setting [11]) it was 46.3 ± 1.7%.
On to `CC(C)(C)c1cc2c(cc1O)CCO2` [Example 15, 6-t-Butyl-5-hydroxy-2,3-dihydrobenzofuran], for which the results for the inhibition at 1 µM with cultured mesangial cells (setting [8]) and in the assay on cultured mesangial cells (setting [9]) were -4 ± 3.5% and -14.6 ± 3.3%, respectively. Besides, the results for the inhibition at 3 µM in the assay with cultured mesangial cells (setting [10]) and in the assay with cultured mesangial cells (setting [11]) were 33.6 ± 11.5% and 5.4 ± 5.1%, respectively.
Take `CC(C)(C)c1cc2c(cc1O)CC1(CCCCCC1)O2` [Example 7, 6-t-Butyl-5-hydroxy-2,3-dihydrobenzofuran-2-spiro-1′-cycloheptane]: the inhibition at 0.1 µM in assay [1] (setting [2]) worked out at 19.1%; in assay [1] (setting [3]) it was 14.7%. Further, the inhibition at 1 µM in assay [1] (setting [4]) worked out at 104%; in assay [1] (setting [5]) it was 104%; in the assay on cultured mesangial cells (setting [8]), 19.3 ± 2.8%; with cultured mesangial cells (setting [9]) it was 22 ± 1.9%. For the same compound, the inhibition at 10 µM in assay [1] (setting [6]) and in assay [1] (setting [7]) was 105% in each case. Besides, the inhibition at 3 µM with cultured mesangial cells (setting [10]) turned out to be 18.1 ± 4.1%; with cultured mesangial cells (setting [11]) it was 24.5 ± 0.8%.
As for `Cc1c(O)c(C(C)(C)C)cc2c1CC1(CCCCCC1)O2` [Example 14-(1), 6-t-Butyl-5-hydroxy-4-methyl-2,3-dihydrobenzofuran-2-spiro-1′-cycloheptane], the values for the inhibition at 0.1 µM in assay [1] (setting [2]) and in assay [1] (setting [3]) were -6.5% and -9.2%, respectively. The inhibition at 1 µM is 103% in assay [1] (setting [4]), 101% in assay [1] (setting [5]), 19.7 ± 7.7% in the assay on cultured mesangial cells (setting [8]) and 34.4 ± 1.5% with cultured mesangial cells (setting [9]). Further, the inhibition at 10 µM in assay [1] (setting [6]) stood at 104%; in assay [1] (setting [7]) it was 103%. Moreover, the figures for the inhibition at 3 µM in the assay with cultured mesangial cells (setting [10]) and with cultured mesangial cells (setting [11]) were 59.3 ± 2.1% and 43.2 ± 2.8%, respectively.
For `CC1(C)Cc2c(c(C(C)(C)C)cc(O)c2C(C)(C)C)O1` [Example 4, 4,7-Di-t-butyl-5-hydroxy-2,2-dimethyl-2,3-dihydrobenzofuran], the inhibition at 0.1 µM in assay [1] (setting [2]) was 11.3%; in assay [1] (setting [3]), 14.4%. Further, the inhibition at 1 µM came out at 100% in assay [1] (setting [4]), 99% in assay [1] (setting [5]), 31.1 ± 5.4% in the assay on cultured mesangial cells (setting [8]) and 32.5 ± 1.9% in the assay with cultured mesangial cells (setting [9]). Besides, the figures for the inhibition at 10 µM in assay [1] (setting [6]) and in assay [1] (setting [7]) were 98.3% and 99.8%, respectively. Further, the values for the inhibition at 3 µM in the assay on cultured mesangial cells (setting [10]) and with cultured mesangial cells (setting [11]) were 66.4 ± 5.9% and 54.3 ± 9.7%, respectively.
On to `CC(C)c1cc2c(c(C(C)(C)C)c1O)CC(C)(C)O2` [Example 20-(2), 4-t-Butyl-5-hydroxy-2,2-dimethyl-6-isopropyl-2,3-dihydrobenzofuran], for which the figures for the inhibition at 0.1 µM in assay [1] (setting [2]) and in assay [1] (setting [3]) were 95.3% and 61.9%, respectively. Also, the inhibition at 1 µM in assay [1] (setting [4]) was found to be 98.1%; in assay [1] (setting [5]), 97.8%. In addition, the inhibition at 10 µM came out at 97.3% in assay [1] (setting [6]) and 99.1% in assay [1] (setting [7]).
Regarding `CCC(C)c1c(O)c(C(C)(C)C)cc2c1CC1(CCCCCC1)O2` (stereo not shown) [Example 13, 6-t-Butyl-5-hydroxy-4-(1-methylpropyl)-2,3-dihydrobenzofuran-2-spiro-1′-cycloheptane], the inhibition at 0.1 µM in assay [1] (setting [2]) worked out at 5.5%; in assay [1] (setting [3]), 3.4%. In addition, the inhibition at 1 µM in assay [1] (setting [4]) was 13.6%; in assay [1] (setting [5]) it was 9.9%; with cultured mesangial cells (setting [8]) it was 1.7 ± 2.9%; in the assay on cultured mesangial cells (setting [9]), -4.3 ± 5.1%. Besides, the inhibition at 10 µM in assay [1] (setting [6]) and in assay [1] (setting [7]) was 100% each time. In addition, the values for the inhibition at 3 µM in the assay with cultured mesangial cells (setting [10]) and with cultured mesangial cells (setting [11]) were 18.4 ± 9.2% and 11.1 ± 4.3%, respectively.
For `CC(C)c1c(O)c(C(C)(C)C)cc2c1CC(C)(C)O2` [Example 20-(1), 6-t-Butyl-5-hydroxy-2,2-dimethyl-4-isopropyl-2,3-dihydrobenzofuran], the inhibition at 0.1 µM in assay [1] (setting [2]) is -4.8%; in assay [1] (setting [3]), -24%. In addition, the inhibition at 1 µM in assay [1] (setting [4]) and in assay [1] (setting [5]) was 100% throughout. The inhibition at 10 µM in assay [1] (setting [6]) worked out at 104%; in assay [1] (setting [7]), 100%.
On to `CC(C)c1cc2c(c(C(C)C)c1O)CC(C)(C)O2` [Example 18, 5-Hydroxy-2,2-dimethyl-4,6-diisopropyl-2,3-dihydrobenzofuran], for which the values for the inhibition at 0.1 µM in assay [1] (setting [2]) and in assay [1] (setting [3]) were 12.1% and -1.9%, respectively. The inhibition at 1 µM in assay [1] (setting [4]) was found to be 100%; in assay [1] (setting [5]) it was 99.7%. The inhibition at 10 µM stood at 100% in assay [1] (setting [6]) and 101% in assay [1] (setting [7]).
`Cc1c(O)c(C(C)(C)C)cc2c1CC(C)(C)O2` [Example 19, 6-t-Butyl-5-hydroxy-2,2,4-trimethyl-2,3-dihydrobenzofuran]: the inhibition at 0.1 µM in assay [1] (setting [2]) worked out at 31.1%; in assay [1] (setting [3]), 13.2%. For the same compound, the inhibition at 1 µM in assay [1] (setting [4]) was 104%; in assay [1] (setting [5]) it was 102%. Also, the inhibition at 10 µM in assay [1] (setting [6]) and in assay [1] (setting [7]) was 102% in each case.
As for `CCC1(CC)Cc2c(cc(C(C)C)c(O)c2C(C)C)O1` [Example 17, 2,2-Diethyl-5-hydroxy-4,6-diisopropyl-2,3-dihydrobenzofuran], the inhibition at 0.1 µM in assay [1] (setting [2]) came out at 40.5%; in assay [1] (setting [3]) it was 22.1%. Also, the inhibition at 1 µM in assay [1] (setting [4]) is 99.9%; in assay [1] (setting [5]), 101%. The inhibition at 10 µM stood at 99.9% in assay [1] (setting [6]) and 98.4% in assay [1] (setting [7]).
